# Source: US20020052295A1, “Diacyl derivatives of propylene diamine having herbicidal activity” (priority 1999, published 2002)
# Experiments:
# ABUTH = test: Pre-emergence herbicidal activity on ABUTH (velvetleaf); type: in vivo, Abutilon theophrasti
# In short: (§1)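 Pre-emergence soil application; seeds covered with sterilized fertilized topsoil, compound in acetone/water (50:50) applied to surface. 30/21 °C greenhouse, overhead irrigation 0.64 cm then mist/subirrigation. Readout: % inhibition vs untreated at ~14 d; GR80 value, max rate typically 1000 g/ha.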
# SOLNI = test: Pre-emergence herbicidal activity on SOLNI (black nightshade); type: in vivo, Solanum nigrum
# In short: as §1
# AMARE = test: Pre-emergence herbicidal activity on AMARE (redroot pigweed); type: in vivo, Amaranthus retroflexus
# In short: as §1
# DATST = test: Pre-emergence herbicidal activity on DATST (jimsonweed); type: in vivo, Datura stramonium
# In short: as §1
# CHEAL = test: Pre-emergence herbicidal activity on CHEAL (common lambsquarters); type: in vivo, Chenopodium album
# In short: as §1
# CONAR = test: Pre-emergence herbicidal activity on CONAR (field bindweed); type: in vivo, Convolvulus arvensis
# In short: as §1
# POROL = test: Pre-emergence herbicidal activity on POROL (common purslane); type: in vivo, Portulaca oleracea
# In short: as §1
# CIRAR = test: Pre-emergence herbicidal activity on CIRAR (canada thistle, seedling); type: in vivo, Cirsium arvense
# In short: as §1
# PANMI [1] = test: Pre-emergence herbicidal activity on PANMI (wild proso millet); type: in vivo, Panicum miliaceum
# In short: as §1
# SORHA [2] = test: Pre-emergence herbicidal activity on SORHA (johnsongrass, seedling); type: in vivo, Sorghum halepense
# In short: as §1
# SETFA [3] = test: Pre-emergence herbicidal activity on SETFA (giant foxtail); type: in vivo, Setaria faberi
# In short: as §1
# PANDI [4] = test: Pre-emergence herbicidal activity on PANDI (fall panicum); type: in vivo, Panicum dichotomiflorum
# In short: as §1
# BRAPP [5] = test: Pre-emergence herbicidal activity on BRAPP (broadleaf signalgrass); type: in vivo, Brachiaria platyphylla
# In short: as §1
# DIGSA [6] = test: Pre-emergence herbicidal activity on DIGSA (large crabgrass); type: in vivo, Digitaria sanguinalis
# In short: as §1
# [7] = tested on: monocotyledonous and dicotyledonous annual plant species; test: Greenhouse pre-emergence test, all species of the test taken together; type: in vivo
# Excerpt: All such uses, and the biological activity enabling such uses, are embraced by the term “herbicidal” herein. […] Where herbicidal activity was evident but 80% inhibition was not achieved at the highest rate tested (typically 1000 g/ha), an asterisk (*) is shown in the following tables. Herbicidal activity evident in the form of symptoms of phytotoxicity, in the absence of at least 80% inhibition at any rate, is indicated in the tables by “phyto”. A blank cell in the following tables indicates no herbicidal or phytotoxic response at any rate tested.
# (§2) The pre-emergence tests were conducted by the following procedure. Topsoil was sieved to pass through a 1.27 cm screen. Fertilizer was added to the topsoil and the mixture was then sterilized by heating. The topsoil mixture was placed in a pot and compacted to a depth of 1.0 to 1.25 cm from the top of the pot. Seeds of each of several monocotyledonous and dicotyledonous annual plant species were placed on top of the soil. Additional soil was subsequently placed over the seeds to level-fill the pot. A known amount of each test compound dissolved or suspended in an appropriate organic solvent was diluted with a 50:50 mix of acetone and water and applied to the surface of the soil. After treatment the plants were placed in a greenhouse with a 30/21° C. day/night temperature regime where they received 0.64 cm of overhead irrigation. All subsequent watering consisted of a light overhead mist and/or subirrigation as needed for germination and growth.
# Pre-emergence herbicidal activity of the compound of Example 5, a racemic mixture of R- and S-enantiomers of N,N′-(1,2-propanediylbis)-3-(trifluoromethyl) benzamide, was compared with that of the individual R- and S-enantiomers, the compounds of Examples 5a and 5b respectively. The procedure was exactly as described above. Rates tested were 1000, 650, 300, 200, 100, 65, 30 and 10 g/ha.
# In a greenhouse pre-emergence test conducted according to the procedure described hereinabove, R—N,N′-(1,2-propanediylbis)-3-(trifluoromethyl)benzamide (the compound of Example 5a) was applied at 200 g/ha and acetochlor was applied at 100 g/ha, both individually and in combination.
# In the same greenhouse pre-emergence test, R-2-fluoro-3-trifluoromethyl-N-[1-methyl-2-(3-trifluoromethyl)phenylcarbonylamino]ethylbenzamide (the compound of Example 13) was applied at 100 g/ha and acetochlor was applied at 100 g/ha, both individually and in combination.
# ECHCG [8] = test: Pre-emergence herbicidal activity on ECHCG (barnyardgrass); type: in vivo, Echinochloa crus-galli; conditions: racemic mixture vs enantiomers test; rates tested 1000, 650, 300, 200, 100, 65, 30 and 10 g/ha; lowest rate with 80% or greater inhibition
# In short: as §1
# SORVU [9] = test: Pre-emergence herbicidal activity on SORVU (shattercane); type: in vivo, Sorghum vulgare; conditions: racemic mixture vs enantiomers test; rates tested 1000, 650, 300, 200, 100, 65, 30 and 10 g/ha; lowest rate with 80% or greater inhibition
# Excerpt: (§3) All such uses, and the biological activity enabling such uses, are embraced by the term “herbicidal” herein. Tables 15 and 16 summarize results of tests conducted as described below to determine the pre-emergence herbicidal activity, in the form of a GR80 value, of illustrative compounds of this invention. […] Where herbicidal activity was evident but 80% inhibition was not achieved at the highest rate tested (typically 1000 g/ha), an asterisk (*) is shown in the following tables. Herbicidal activity evident in the form of symptoms of phytotoxicity, in the absence of at least 80% inhibition at any rate, is indicated in the tables by “phyto”. A blank cell in the following tables indicates no herbicidal or phytotoxic response at any rate tested.
# as §2
# Approximately 14 days after planting and treating, the plants were observed and herbicidal efficacy recorded as percent inhibition by comparison with untreated plants.
# The plant species usually regarded as weeds which were utilized in the tests are identified in the tables below according to the following legend, in which “d” indicates a dicotyledonous species and “m” a monocotyledonous species. All monocotyledonous species included in the tests herein are grasses.
# ECHCG [10] = test: Post-emergence herbicidal activity on ECHCG (barnyardgrass); type: in vivo, Echinochloa crus-galli; conditions: post-emergence spray; lowest tested rate with 80% or greater inhibition; about 14 days after treatment
# Excerpt: as §3
# (§4) In another set of tests, the post-emergence activity of compounds of this invention was evaluated on the cool season species listed above. The following procedure was used.
# (§5) A pre-prepared topsoil mixture (described above) was placed in a pot and compacted to a depth of 1.0 to 1.25 cm from the top of the pot. Seeds of each of several monocotyledonous and dicotyledonous annual plant species were placed on top of the soil The seeds were covered with a mixture of 50% topsoil and 50% Rediearth™ in sufficient quantity to level-fill the pots. The pots were then placed on a greenhouse bench and subirrigated as needed until plants growing from the seeds had emerged and reached a suitable growth stage for post-emergence treatment, typically 9 to 14 days after planting.
# (§6) A known amount of each test compound dissolved or suspended in an appropriate organic solvent was diluted with a 50:50 mix of acetone and water and applied to the plants by spraying with a standard spray nozzle in a spray volume of 3,100 l/ha at a spray pressure of […] (30 psig). Control plants were not sprayed.
# (§7) After treatment the plants were placed in a greenhouse with a 30/21° C. day/night temperature regime and were subsequently watered as needed for growth. Approximately 14 days after treatment, the plants were observed and herbicidal efficacy recorded as percent inhibition by comparison with control plants.
# PANMI [11] = test: Post-emergence herbicidal activity on PANMI (wild proso millet); type: in vivo, Panicum miliaceum; conditions: post-emergence spray; lowest tested rate with 80% or greater inhibition; about 14 days after treatment
# SORHA [12] = test: Post-emergence herbicidal activity on SORHA (johnsongrass, seedling); type: in vivo, Sorghum halepense; conditions: post-emergence spray; lowest tested rate with 80% or greater inhibition; about 14 days after treatment
# Excerpt: as §3, §4, §5, §6, §7
# SETFA [13] = test: Post-emergence herbicidal activity on SETFA (giant foxtail); type: in vivo, Setaria faberi; conditions: post-emergence spray; lowest tested rate with 80% or greater inhibition; about 14 days after treatment
# Excerpt: as §3, §4, §5, §6, §7
# PANDI [14] = test: Post-emergence herbicidal activity on PANDI (fall panicum); type: in vivo, Panicum dichotomiflorum; conditions: post-emergence spray; lowest tested rate with 80% or greater inhibition; about 14 days after treatment
# Excerpt: as §3, §4, §5, §6, §7
# SORVU [15] = test: Post-emergence herbicidal activity on SORVU (shattercane); type: in vivo, Sorghum vulgare; conditions: post-emergence spray; lowest tested rate with 80% or greater inhibition; about 14 days after treatment
# Excerpt: as §3, §4, §5, §6, §7
# BRAPP [16] = test: Post-emergence herbicidal activity on BRAPP (broadleaf signalgrass); type: in vivo, Brachiaria platyphylla; conditions: post-emergence spray; lowest tested rate with 80% or greater inhibition; about 14 days after treatment
# Excerpt: as §3, §4, §5, §6, §7
# DIGSA [17] = test: Post-emergence herbicidal activity on DIGSA (large crabgrass); type: in vivo, Digitaria sanguinalis; conditions: post-emergence spray; lowest tested rate with 80% or greater inhibition; about 14 days after treatment
# [18] = applied alone at 100 g/ha, greenhouse
# [19] = pre-emergence application, acetochlor 100 g/ha alone
# [20] = racemic mixture vs enantiomers test, rates tested 1000, 650, 300, 200, 100, 65, 30 and 10 g/ha, lowest rate with 80% or greater inhibition
smiles,measurement,setting,value
"CCOCN(C(=O)CCl)c1c(C)cccc1CC [Acetochlor, acetochlor, reference compound]","Percent control by pre-emergence application, ABUTH",ABUTH; [18],0%
same,Percent control ABUTH,ABUTH; [19],0%
same,"Percent control by pre-emergence application, SOLNI",SOLNI; [18],75%
same,Percent control SOLNI,SOLNI; [19],75%
same,"Percent control by pre-emergence application, AMARE",AMARE; [18],100%
same,Percent control AMARE,AMARE; [19],100%
same,"Percent control by pre-emergence application, DATST",DATST; [18],33%
same,Percent control DATST,DATST; [19],33%
same,"Percent control by pre-emergence application, CHEAL",CHEAL; [18],100%
same,Percent control CHEAL,CHEAL; [19],100%
same,"Percent control by pre-emergence application, CONAR",CONAR; [18],23%
same,Percent control CONAR,CONAR; [19],23%
same,"Percent control by pre-emergence application, POROL",POROL; [18],100%
same,Percent control POROL,POROL; [19],100%
same,"Percent control by pre-emergence application, CIRAR",CIRAR; [18],100%
same,Percent control CIRAR,CIRAR; [19],100%
same,"Percent control by pre-emergence application, PANMI",PANMI [1]; [18],83%
same,Percent control PANMI,PANMI [1]; [19],83%
same,"Percent control by pre-emergence application, SORHA",SORHA [2]; [18],83%
same,Percent control SORHA,SORHA [2]; [19],83%
same,"Percent control by pre-emergence application, SETFA",SETFA [3]; [18],100%
same,Percent control SETFA,SETFA [3]; [19],100%
same,"Percent control by pre-emergence application, PANDI",PANDI [4]; [18],100%
same,Percent control PANDI,PANDI [4]; [19],100%
same,"Percent control by pre-emergence application, BRAPP",BRAPP [5]; [18],76%
same,Percent control BRAPP,BRAPP [5]; [19],76%
same,"Percent control by pre-emergence application, DIGSA",DIGSA [6]; [18],100%
same,Percent control DIGSA,DIGSA [6]; [19],100%
same,number of the 14 species showing >85% control,[7]; acetochlor alone at 100 g/ha,7
CC(CNC(=O)c1cccc(C(F)(F)F)c1)NC(=O)c1cccc(C(F)(F)F)c1 (stereo not drawn) [Example 5b],Pre-emergence activity (GR80) ABUTH,ABUTH; [20],[empty]
same,Pre-emergence activity (GR80) SOLNI,SOLNI; [20],[empty]
same,Pre-emergence activity (GR80) AMARE,AMARE; [20],[empty]
same,Pre-emergence activity (GR80) DATST,DATST; [20],[empty]
same,Pre-emergence activity (GR80) CHEAL,CHEAL; [20],[empty]
same,Pre-emergence activity (GR80) CONAR,CONAR; [20],[empty]
same,Pre-emergence activity (GR80) PORAL,POROL; [20],[empty]
same,Pre-emergence activity (GR80) CIRAR,CIRAR; [20],[empty]
same,Pre-emergence activity (GR80) ECHCG,ECHCG [8],[empty]
same,Pre-emergence activity (GR80) PANMI,PANMI [1]; [20],[empty]
same,Pre-emergence activity (GR80) SORHA,SORHA [2]; [20],[empty]
same,Pre-emergence activity (GR80) SETFA,SETFA [3]; [20],[empty]
same,Pre-emergence activity (GR80) PANDI,PANDI [4]; [20],[empty]
same,Pre-emergence activity (GR80) SORVU,SORVU [9],[empty]
same,Pre-emergence activity (GR80) BRAPP,BRAPP [5]; [20],[empty]
same,Pre-emergence activity (GR80) DIGSA,DIGSA [6]; [20],[empty]
same,pre-emergence herbicidal activity (in words),"[7]; rates 1000 to 10 g/ha, all species of Tables 19 and 20",completely inactive
CC(CNC(=O)c1cccc(C(F)(F)F)c1)NC(=O)c1ccc(C(F)(F)F)c(F)c1 (stereo not drawn) [Example 24],Post-emergence activity (GR80) ECHCG,ECHCG [10],phyto
same,Post-emergence activity (GR80) PANMI,PANMI [11],phyto
same,Post-emergence activity (GR80) SORHA,SORHA [12],[empty]
same,Post-emergence activity (GR80) SETFA,SETFA [13],[empty]
same,Post-emergence activity (GR80) PANDI,PANDI [14],phyto
same,Post-emergence activity (GR80) SORVU,SORVU [15],phyto
same,Post-emergence activity (GR80) BRAPP,BRAPP [16],phyto
same,Post-emergence activity (GR80) DIGSA,DIGSA [17],phyto
